Measured values: the supplement of paper PMC11451515

Test system: SEM cells
Experiment: cell viability relative to DMSO control; higher = less cytotoxic
Conditions: 48 h
In short: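 Library compounds in DMSO were pin-dosed into 1536-well plates (5 μl) holding NOMO1 or SEM (500 cells/well) or P12-Ichikawa (1000 cells/well) leukemia cells, across an 11-point threefold series of 47 μM to 0.79 nM. Each cell line had been adapted for at least four passages in each medium. CellTiter-Glo One luminescence was read after 48 h at 37°C. Viability is the per-plate percentage relative to DMSO wells, with cell-free wells as background.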

[1] = HPLM + 10% dialyzed FBS, 0.000781 µM
[2] = HPLM + 10% dialyzed FBS, 0.00234 µM
[3] = HPLM + 10% dialyzed FBS, 0.00702 µM
[4] = HPLM + 10% dialyzed FBS, 0.0211 µM
[5] = HPLM + 10% dialyzed FBS, 0.0632 µM
[6] = HPLM + 10% dialyzed FBS, 0.19 µM
[7] = HPLM + 10% dialyzed FBS, 0.569 µM
[8] = HPLM + 10% dialyzed FBS, 1.71 µM
[9] = HPLM + 10% dialyzed FBS, 5.12 µM
[10] = HPLM + 10% dialyzed FBS, 15.4 µM
[11] = HPLM + 10% dialyzed FBS, 46.1 µM
[12] = RPMI 5 mM glucose + 10% FBS, 0.000781 µM
[13] = RPMI 5 mM glucose + 10% FBS, 0.00234 µM
[14] = RPMI 5 mM glucose + 10% FBS, 0.00702 µM
[15] = RPMI 5 mM glucose + 10% FBS, 0.0211 µM
[16] = RPMI 5 mM glucose + 10% FBS, 0.0632 µM
[17] = RPMI 5 mM glucose + 10% FBS, 0.19 µM
[18] = RPMI 5 mM glucose + 10% FBS, 0.569 µM
[19] = RPMI 5 mM glucose + 10% FBS, 1.71 µM
[20] = RPMI 5 mM glucose + 10% FBS, 5.12 µM
[21] = RPMI 5 mM glucose + 10% FBS, 15.4 µM
[22] = RPMI 5 mM glucose + 10% FBS, 46.1 µM
[23] = RPMI 5 mM glucose + 10% dialyzed FBS, 0.000781 µM
[24] = RPMI 5 mM glucose + 10% dialyzed FBS, 0.00234 µM
[25] = RPMI 5 mM glucose + 10% dialyzed FBS, 0.00702 µM
[26] = RPMI 5 mM glucose + 10% dialyzed FBS, 0.0211 µM
[27] = RPMI 5 mM glucose + 10% dialyzed FBS, 0.0632 µM
[28] = RPMI 5 mM glucose + 10% dialyzed FBS, 0.19 µM
[29] = RPMI 5 mM glucose + 10% dialyzed FBS, 0.569 µM
[30] = RPMI 5 mM glucose + 10% dialyzed FBS, 1.71 µM
[31] = RPMI 5 mM glucose + 10% dialyzed FBS, 5.12 µM
[32] = RPMI 5 mM glucose + 10% dialyzed FBS, 15.4 µM
[33] = RPMI 5 mM glucose + 10% dialyzed FBS, 46.1 µM

Compound	cell viability [1] [%]	cell viability [2] [%]	cell viability [3] [%]	cell viability [4] [%]	cell viability [5] [%]	cell viability [6] [%]	cell viability [7] [%]	cell viability [8] [%]	cell viability [9] [%]	cell viability [10] [%]	cell viability [11] [%]	cell viability [12] [%]	cell viability [13] [%]	cell viability [14] [%]	cell viability [15] [%]	cell viability [16] [%]	cell viability [17] [%]	cell viability [18] [%]	cell viability [19] [%]	cell viability [20] [%]	cell viability [21] [%]	cell viability [22] [%]	cell viability [23] [%]	cell viability [24] [%]	cell viability [25] [%]	cell viability [26] [%]	cell viability [27] [%]	cell viability [28] [%]	cell viability [29] [%]	cell viability [30] [%]	cell viability [31] [%]	cell viability [32] [%]	cell viability [33] [%]
C[Se]CCC(N)C(=O)O (stereo not drawn)	50.5	87.2	86.1	94.7	75.6	71.3	82.8	71.5	86.4	78.1	72	65.1	83.9	107	95.4	89.8	95	85.9	88.5	103	100	98.1	51.5	100	96.6	94.4	73.1	101	90.4	84.1	94.2	100	88.7
CN(C)CCC=C1C2=C(C=CC=C2)\C=C/C3=C1C=CC=C3	108	115	120	100	116	124	116	101	108	99.1	72.2	108	116	106	109	109	112	93.1	68.7	102	101	84.9	112	108	129	130	119	128	112	106	116	108	81.7
CC(Oc1ccc(O)cc1)(P(=O)(O)O)P(=O)(O)O	108	105	98.2	108	109	104	86.1	101	83.3	65.5	28.5	107	110	103	116	109	96.2	92.3	105	83.1	48.4	25.1	98.8	85.7	103	97.9	113	110	90.1	96.3	74.9	55.1	28.6
CC1(C)OC/2=C(\[C@H](NCC3=CC=CC=C3)[C@@H]1O)C(=O)C4=CC=CC=C4C2=O	103	95.6	91	115	98.4	111	106	110	83.6	41.1	9.15	80.9	71.7	98.4	83.9	94.1	91.9	108	99.7	54.2	24.5	5.4	96.8	74.4	109	97.7	94.4	106	109	92.5	83.4	48.1	8.42
CCC(CC)[C@H](NC(C)=O)[C@@H]1[C@H](O)[C@@H](C(=O)O)C[C@H]1NC(=N)N	62	68	77.2	87.2	76.1	32.7	57.9	79.1	78.3	66.1	87.8	89.2	84.2	84.6	80.4	103	17.8	94.4	102	87.2	77.7	88.3	69.9	71.9	80.8	80.9	81.8	56.7	50.9	95.9	114	71.9	68.6
CC1=C(C)C2=C(S1)[N]3C(=NN=C3[C@H](CC(=O)OC(C)(C)C)/N=C2/C4=CC=C(Cl)C=C4)C	98.5	115	107	105	104	43.2	11.3	17.7	6.74	4.33	1.71	100	108	106	102	103	67.7	13.7	18.7	7.27	4.94	1.39	108	103	102	78.7	94.7	53.9	17.5	15.8	5.05	3.64	1.14
